# Measured values: PubChem BioAssay (NCI)
#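 Cells were grown in 96-well plates and exposed to each compound for 48 hours at five concentrations; endpoints were interpolated linearly between bracketing concentrations, or set to the highest concentration if not reached. At the GI50, growth is halved. TGI: total growth inhibition.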
# Assays:
# Assay in all cases: NCI tumour cell line growth inhibition, 48 h
# [1] = tested on: NCI/ADR-RES ovarian
# [2] = tested on: SW-620 colon
# [3] = tested on: UACC-62 melanoma
# [4] = tested on: 786-0 renal
# [5] = tested on: PC-3 prostate
# [6] = tested on: ACHN renal
# [7] = tested on: MDA-MB-231 breast
# [8] = tested on: SK-MEL-5 melanoma
# [9] = tested on: NCI-H460 lung
# [10] = tested on: HS 578T breast
Structure (SMILES),GI50 [1],GI50 [2],TGI [2],GI50 [3],TGI [3],GI50 [4],TGI [4],GI50 [5],TGI [5],GI50 [6],TGI [6],GI50 [7],TGI [7],GI50 [8],TGI [8],GI50 [9],TGI [9],GI50 [10],TGI [10],TGI [1]
Nc1ccc(CC[C@H]2CCC/C=C/[C@@H]3C[C@H](O)C[C@H]3[C@H](O)/C=C/C(=O)O2)cc1,37.6 nM,32.9 nM,203 nM,48.8 nM,14100 nM,23.9 nM,57 nM,49.4 nM,> 100000 nM,41.3 nM,> 100000 nM,21.2 nM,42.1 nM,< 13 nM,23.6 nM,43 nM,> 100000 nM,< 16.3 nM,> 58900 nM,–
CCc1ccc2c(c1)C(=O)c1c-2n(CCCN)c(=O)c2cc(OC)c(OC)cc12,1680 nM,1720 nM,3330 nM,1800 nM,3320 nM,1680 nM,3110 nM,1540 nM,2920 nM,1680 nM,3070 nM,1630 nM,3140 nM,1440 nM,2800 nM,1850 nM,3860 nM,2070 nM,3780 nM,3220 nM
NC(=NCCCCCCN=C(N)/N=C(\N)Nc1ccc(Cl)cc1)/N=C(\N)Nc1ccc(Cl)cc1,4090 nM,1540 nM,5150 nM,1280 nM,4320 nM,1600 nM,5800 nM,1740 nM,6380 nM,2180 nM,8360 nM,1420 nM,3960 nM,908 nM,1730 nM,929 nM,1920 nM,1430 nM,4730 nM,50000 nM
CNC(=O)CCN1CCN(CC/C=C2\c3ccccc3Sc3ccc(Cl)cc32)CC1,7080 nM,9180 nM,23600 nM,1920 nM,3620 nM,12100 nM,27400 nM,9070 nM,> 45000 nM,13800 nM,27100 nM,10600 nM,24700 nM,2410 nM,6180 nM,7020 nM,21600 nM,3670 nM,20500 nM,16500 nM
COc1cc(N=Nc2cc(Cc3ccc(N(C)C)cc3)c(N)cc2N(C)C)c2ncccc2c1,338 nM,374 nM,2160 nM,420 nM,1830 nM,1010 nM,2250 nM,293 nM,3030 nM,233 nM,1690 nM,512 nM,2170 nM,227 nM,714 nM,519 nM,1910 nM,473 nM,2350 nM,1570 nM
COC(=O)c1c(C)nc(C)c2c1C(=O)C(Br)=C(NCc1ccccc1)C2=O,2830 nM,3390 nM,10700 nM,1410 nM,2930 nM,4650 nM,16300 nM,2730 nM,10900 nM,3080 nM,9970 nM,2110 nM,8400 nM,1470 nM,2850 nM,2940 nM,11500 nM,10800 nM,> 100000 nM,8160 nM
